# Earlier results, collected in US11839666B2, “Oral care article comprising a hydrophobic delivery carrier and solid hydrophilic particles comprising an agent” (The Procter & Gamble Company, priority 2020, dated 2023).
# Where two headings read alike, the source gives them in different places.
# Conditions: at 20 C
smiles,measurement,setting,value
NC(N)=O.OO [Urea Hydrogen Peroxide Adduct],Solubility in water,per Safety Data Sheet from supplier,800 grams per liter
same,Solubility in water,restated from Safety Data Sheet value,80 parts per 100 parts of water
